According to patent publication US20250215029A1 (Recludix Pharma, Inc., priority 2022, published 2025):

Assays:
pY705-STAT3 in PBMC = molecular target: T1, pY705-STAT3 in PBMC (Homo sapiens, UniProt P40763); assay: MSD-pSTAT-PBMC Assay (pSTAT3, IL-6 stimulated); format: cell-based; conditions: PBMC, compound 3 hrs, then 10 ng/mL IL-6 for 10 min; Table 1114; read-out: pSTAT3
T1 construct: Cryopreserved Peripheral Blood Mononuclear Cells (PBMC) are from AllCells; host or cells: cryopreserved PBMC
T1 sequence (P40763 whole entry): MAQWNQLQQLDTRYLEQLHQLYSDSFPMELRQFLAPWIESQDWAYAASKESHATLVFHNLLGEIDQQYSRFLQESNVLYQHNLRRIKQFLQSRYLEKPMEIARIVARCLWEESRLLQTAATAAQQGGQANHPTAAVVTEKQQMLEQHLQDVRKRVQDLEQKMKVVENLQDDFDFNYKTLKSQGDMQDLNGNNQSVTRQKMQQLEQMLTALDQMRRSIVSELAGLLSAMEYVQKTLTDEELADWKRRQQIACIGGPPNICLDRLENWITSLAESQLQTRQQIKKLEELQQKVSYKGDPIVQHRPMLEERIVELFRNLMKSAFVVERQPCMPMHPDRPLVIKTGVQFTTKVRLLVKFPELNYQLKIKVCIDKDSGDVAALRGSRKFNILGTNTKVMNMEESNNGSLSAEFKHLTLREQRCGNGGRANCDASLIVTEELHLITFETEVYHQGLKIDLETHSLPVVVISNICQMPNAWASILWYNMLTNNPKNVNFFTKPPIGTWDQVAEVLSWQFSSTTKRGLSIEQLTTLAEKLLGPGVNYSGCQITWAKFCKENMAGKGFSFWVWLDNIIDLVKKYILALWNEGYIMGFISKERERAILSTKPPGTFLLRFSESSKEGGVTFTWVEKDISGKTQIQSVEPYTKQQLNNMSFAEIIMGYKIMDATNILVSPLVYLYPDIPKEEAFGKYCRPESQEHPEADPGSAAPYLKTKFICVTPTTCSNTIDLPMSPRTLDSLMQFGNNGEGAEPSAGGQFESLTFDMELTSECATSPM
Summary of the method: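 Inhibition of cytokine-induced STAT phosphorylation was measured in recovered human PBMC after 3 hrs compound exposure and a 10 min IL-4 (1 ng/mL) or IL-6 (10 ng/mL) challenge. MSD detection of pY641-STAT6 or pY705-STAT3 yielded IC50 values.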

pY641-STAT6 in PBMC = molecular target: T2, pY641-STAT6 in PBMC (Homo sapiens, UniProt P42226); assay: MSD-pSTAT-PBMC Assay (pSTAT6, IL-4 stimulated); format: cell-based; conditions: PBMC, compound 3 hrs, then 1 ng/mL IL-4 for 10 min; Table 1114; read-out: pSTAT6
T2 construct: Cryopreserved Peripheral Blood Mononuclear Cells (PBMC) are from AllCells; host or cells: cryopreserved PBMC
T2 sequence (P42226 1-847): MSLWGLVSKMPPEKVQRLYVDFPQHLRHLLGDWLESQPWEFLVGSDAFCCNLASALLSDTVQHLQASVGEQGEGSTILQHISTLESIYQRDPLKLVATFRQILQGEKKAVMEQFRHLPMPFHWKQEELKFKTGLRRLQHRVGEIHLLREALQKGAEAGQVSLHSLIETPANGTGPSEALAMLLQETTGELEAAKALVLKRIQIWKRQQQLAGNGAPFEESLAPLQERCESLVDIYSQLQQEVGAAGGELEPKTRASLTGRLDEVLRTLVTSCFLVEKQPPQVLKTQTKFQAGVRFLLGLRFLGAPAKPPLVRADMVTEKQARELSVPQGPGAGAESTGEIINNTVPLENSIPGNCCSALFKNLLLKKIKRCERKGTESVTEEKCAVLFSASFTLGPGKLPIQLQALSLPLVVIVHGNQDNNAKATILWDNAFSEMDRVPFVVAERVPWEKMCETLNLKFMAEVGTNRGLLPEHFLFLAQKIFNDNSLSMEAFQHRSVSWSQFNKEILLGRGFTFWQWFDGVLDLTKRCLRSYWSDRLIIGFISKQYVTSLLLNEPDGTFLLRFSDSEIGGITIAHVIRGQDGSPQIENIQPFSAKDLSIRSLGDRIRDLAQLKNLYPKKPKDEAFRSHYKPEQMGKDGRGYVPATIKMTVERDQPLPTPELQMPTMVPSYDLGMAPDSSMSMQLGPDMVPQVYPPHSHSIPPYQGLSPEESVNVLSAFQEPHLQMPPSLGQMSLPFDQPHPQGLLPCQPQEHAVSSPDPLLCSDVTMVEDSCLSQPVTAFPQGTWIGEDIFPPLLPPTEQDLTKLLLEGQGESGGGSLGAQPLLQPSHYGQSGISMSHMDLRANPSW
Summary of the method: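 PBMC (human, cryopreserved, overnight recovery) + cpd 3 hrs → IL-6 10 ng/mL (STAT3) or IL-4 1 ng/mL (STAT6) ×10 min → lysis with protease/phosphatase inhibitors → MSD capture/phospho detection. IC50, variable slope, DMSO-normalized.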

SMILES | IC50 (pY705-STAT3 in PBMC) | IC50 (pY641-STAT6 in PBMC)
CC(C)(C)C(=O)OCOP(=O)(OCOC(=O)C(C)(C)C)C(F)(F)c1ccc2sc(C(=O)N[C@H]3CCC[C@H]4CCC[C@@H](C(=O)N5CC(C#N)C(c6ccccc6)C5)N4C3=O)cc2c1 (stereo partly drawn) [Compound 170, ((((2-(((4S,7S,10aS)-4-(rel-(trans)-3-cyano-4-phenylpyrrolidine-1-carbonyl)-6-oxodecahydropyrido [1,2-a]azepin-7-yl)carbamoyl)benzo[b]thiophen-5-yl)difluoromethyl)phosphoryl)bis(oxy)) bis(methylene) bis(2,2-dimethylpropanoate)] | 0.1 to 1 µM | < 0.1 µM
CC(C)(C)C(=O)OCOP(=O)(OCOC(=O)C(C)(C)C)C(F)(F)c1ccc2sc(C(=O)N[C@H]3CCCC[C@H]4CCC[C@@H](C(=O)N5CC(n6ccnc6)C5)N4C3=O)cc2c1 [Compound 171, ((((2-(((4S,7S,11aS)-4-(3-(1H-imidazol-1-yl)azetidine-1-carbonyl)-6-oxodecahydro-2H-pyrido[1,2-a]azocin-7-yl)carbamoyl)benzo[b]thiophen-5-yl)difluoromethyl)phosphoryl)bis(oxy)) bis(methylene) bis(2,2-dimethylpropanoate)] | > 3 µM | > 3 µM
CC(C)(C)C(=O)OCOP(=O)(OCOC(=O)C(C)(C)C)C(F)(F)c1ccc2sc(C(=O)N[C@H]3CCCC[C@H]4CCC[C@@H](C(=O)N5CC(C(=O)N6CCOCC6)C5)N4C3=O)cc2c1 [Compound 172, (((difluoro(2-(((4S,7S,11aS)-4-(3-(morpholine-4-carbonyl)azetidine-1-carbonyl)-6-oxodecahydro-2H-pyrido[1,2-a]azocin-7-yl)carbamoyl)benzo[b]thiophen-5-yl)methyl)phosphoryl)bis(oxy))bis(methylene) bis(2,2-dimethylpropanoate)] | < 0.1 µM | 1 to 3 µM
CC(C)(C)C(=O)OCOP(=O)(OCOC(=O)C(C)(C)C)C(F)(F)c1ccc2sc(C(=O)N[C@H]3CCC[C@H]4CCC[C@@H](C(=O)N5CC(n6ccnc6)C5)N4C3=O)cc2c1 [Compound 173, ((((2-(((4S,7S,10aS)-4-(3-(1H-imidazol-1-yl)azetidine-1-carbonyl)-6-oxodecahydropyrido [1,2-a]azepin-7-yl)carbamoyl)benzo[b]thiophen-5-yl)difluoromethyl)phosphoryl)bis(oxy)) bis(methylene) bis(2,2-dimethylpropanoate)] | 0.1 to 1 µM | > 3 µM
CC(C)(C)C(=O)OCOP(=O)(OCOC(=O)C(C)(C)C)C(F)(F)c1ccc2sc(C(=O)N[C@H]3CCCC[C@H]4CC[C@@H](C(=O)N5CC(F)(c6ccccc6)C5)N4C3=O)cc2c1 [Compound 174, (((difluoro(2-(((3S,6S,10aS)-3-(3-fluoro-3-phenylazetidine-1-carbonyl)-5-oxodecahydropyrrolo [1,2-a]azocin-6-yl)carbamoyl)benzo[b]thiophen-5-yl)methyl)phosphoryl)bis(oxy)) bis(methylene) bis(2,2-dimethylpropanoate)] | < 0.1 µM | 0.1 to 1 µM
CC(C)CC(=O)SCCOP(=O)(OCCSC(=O)CC(C)C)C(F)(F)c1ccc2sc(C(=O)N[C@H]3CCC[C@H]4CC[C@@H](C(=O)N5CC(c6cccnc6)C5)N4C3=O)cc2c1 [Compound 177, S,S′-((((difluoro(2-(((3S,6S,9aS)-5-oxo-3-(3-(pyridin-3-yl)azetidine-1-carbonyl)octahydro-1H-pyrrolo[1,2-a]azepin-6-yl)carbamoyl)benzo[b]thiophen-5-yl)methyl)phosphoryl)bis(oxy))bis(ethane-2,1-diyl)) bis(3-methylbutane thioate)] | < 0.1 µM | 1 to 3 µM
CCCC(=O)SCCOP(=O)(OCCSC(=O)CCC)C(F)(F)c1ccc2sc(C(=O)NC3CCCC4CCC(C(=O)N5CC(c6cccnc6)C5)N4C3=O)cc2c1 [Compound 179, S,S′-((((difluoro(2-(((3S,6S,9aS)-5-oxo-3-(3-(pyridin-3-yl)azetidine-1-carbonyl)octahydro-1H-pyrrolo[1,2-a]azepin-6-yl)carbamoyl)benzo[b]thiophen-5-yl)methyl)phosphoryl)bis(oxy))bis(ethane-2,1-diyl)) dibutanethioate] | < 0.1 µM | 1 to 3 µM
CC(C)OC(=O)OCOP(=O)(OCOC(=O)OC(C)C)C(F)(F)c1ccc2sc(C(=O)N[C@H]3CCC[C@H]4CC[C@@H](C(=O)N5CC(c6cccnc6)C5)N4C3=O)cc2c1 [Compound 180, (((difluoro(2-(((3S,6S,9aS)-5-oxo-3-(3-(pyridin-3-yl)azetidine-1-carbonyl)octahydro-1H-pyrrolo[1,2-a]azepin-6-yl)carbamoyl)benzo[b]thiophen-5-yl)methyl)phosphoryl)bis(oxy)) bis(methylene) diisopropyl bis(carbonate)] | < 0.1 µM | > 3 µM
CC(C)(C)C(=O)SCCOP(=O)(OCCSC(=O)C(C)(C)C)C(F)(F)c1ccc2sc(C(=O)N[C@H]3CCCC[C@H]4CC[C@@H](C(=O)N5CC(c6cccnc6)C5)N4C3=O)cc2c1 [Compound 181, S,S′-((((difluoro(2-(((3S,6S,10aS)-5-oxo-3-(3-(pyridin-3-yl)azetidine-1-carbonyl)decahydro-pyrrolo[1,2-a]azocin-6-yl)carbamoyl)benzo[b]thiophen-5-yl)methyl)phosphoryl)bis(oxy))bis(ethane-2,1-diyl)) bis(2,2-dimethylpropanethioate)] | < 0.1 µM | > 3 µM
CC(C)(C)C(=O)SCCOP(=O)(OCCSC(=O)C(C)(C)C)C(F)(F)c1ccc2sc(C(=O)N[C@H]3CCCC[C@H]4CC[C@@H](C(=O)N5CC(c6c[nH]cn6)C5)N4C3=O)cc2c1 [Compound 182, S,S′-(((3S,6S,10aS)-3-(3-(1H-imidazol-4-yl)azetidine-1-carbonyl)-5-oxodecahydropyrrolo [1,2-a]azocin-6-yl)carbamoyl)benzo[b] thiophen-5-yl) difluoromethyl) phosphoryl)bis(oxy)) bis(ethane-2,1-diyl)) bis(2,2-dimethylpropanethioate)] | < 0.1 µM | 1 to 3 µM
CC(C)(C)C(=O)OCOP(=O)(OCOC(=O)C(C)(C)C)C(F)(F)c1ccc2sc(C(=O)N[C@@]3(C)CCCC[C@H]4CC[C@@H](C(=O)N5CC(C(=O)N6CCOCC6)C5)N4C3=O)cc2c1 [Compound 186, (((difluoro(2-(((3S,6S, 10aS)-6-methyl-3-(3-(morpholine-4-carbonyl)azetidine-1-carbonyl)-5-oxodeca-hydropyrrolo [1,2-a]azocin-6-yl)carbamoyl)benzo[b]thiophen-5-yl)methyl)phosphoryl)bis (oxy))bis (methylene) bis(2,2-dimethyl-propanoate)] | < 0.1 µM | > 3 µM
CC(C)(C)C(=O)OCOP(=O)(OCOC(=O)C(C)(C)C)C(F)(F)c1ccc2sc(C(=O)N[C@H]3CCC[C@H]4CC[C@@H](C(=O)N5CC(C(=O)N6CCOCC6)C5)N4C3=O)cc2c1 [Compound 187, (((difluoro(2-(((3S,6S,9aS)-3-(3-(morpholine-4-carbonyl)azetidine-1-carbonyl)-5-oxooctahydro-1H-pyrrolo[1,2-a]azepin-6-yl)carbamoyl)benzo[b]thiophen-5-yl)methyl)phosphoryl)bis (oxy))bis (methylene) bis(2,2-dimethyl-propanoate)] | < 0.1 µM | 1 to 3 µM
CC(C)(C)C(=O)OCOP(=O)(OCOC(=O)C(C)(C)C)C(F)(F)c1ccc2sc(C(=O)N[C@H]3CCC[C@H]4CC[C@@H](C(=O)N5CC(c6ccccn6)C5)N4C3=O)cc2c1 [Compound 188, (((difluoro(2-(((3S,6S,9aS)-5-oxo-3-(3-(pyridin-2-yl)azetidine-1-carbonyl)octahydro-1H-pyrrolo[1,2-a]azepin-6-yl)carbamoyl)benzo[b]thiophen-5-yl)methyl)phosphoryl)bis (oxy))bis (methylene) bis(2,2-dimethyl-propanoate)] | < 0.1 µM | 0.1 to 1 µM
